The source of these data is PMC7288026, “Novel Class of Chalcone Oxime Ethers as Potent Monoamine Oxidase-B and Acetylcholinesterase Inhibitors” (Molecules, 2020).

In one test the target is T1, recombinant hMAO-A (Homo sapiens, UniProt P21397).
T1 construct: purchased Sigma-Aldrich
T1 sequence (P21397 1-527): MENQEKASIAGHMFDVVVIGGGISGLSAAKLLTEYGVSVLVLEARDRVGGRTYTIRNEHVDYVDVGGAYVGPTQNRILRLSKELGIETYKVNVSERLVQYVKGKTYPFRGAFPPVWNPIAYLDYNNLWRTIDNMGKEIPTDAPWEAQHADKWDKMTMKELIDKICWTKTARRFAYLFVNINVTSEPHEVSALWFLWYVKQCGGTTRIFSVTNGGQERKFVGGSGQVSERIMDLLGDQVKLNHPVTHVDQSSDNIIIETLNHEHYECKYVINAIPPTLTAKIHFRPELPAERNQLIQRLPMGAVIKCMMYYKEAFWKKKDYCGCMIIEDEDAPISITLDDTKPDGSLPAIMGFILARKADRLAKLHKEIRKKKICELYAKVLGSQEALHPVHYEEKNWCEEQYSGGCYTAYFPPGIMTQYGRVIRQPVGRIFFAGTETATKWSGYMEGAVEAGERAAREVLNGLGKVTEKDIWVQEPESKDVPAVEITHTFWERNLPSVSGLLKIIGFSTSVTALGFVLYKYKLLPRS
The experiment in a line: MAO-A inhibition assay (kynuramine substrate). As to conditions: for remaining activity at 1 µM: compound at 1.0 µM, mean ± standard error of duplicate experiments, read-out: Residual Activity (%) MAO-A (1.0 µM); for IC50: mean ± standard error of duplicates, reference compounds after 30 min preincubation with enzyme. It counts as biochemical. The procedure:
Recombinant hMAO-A and hMAO-B activities were assayed while using kynuramine (0.06 mM) and benzylamine (0.3 mM) as substrates, respectively, as described previously. […] AChE activity was measured using Type VI-S from Electrophorus electricus in the presence of 0.5 mM 5,5’-dithiobis(2-nitrobenzoic acid) and 0.5 mM acetylthiocholine iodide, as described previously. Enzymes and chemicals were purchased from Sigma–Aldrich (St. Louis, MO, USA).
(§1) AChE inhibitory activities were also determined, except at a concentration of 10 µM. […] Kinetic experiments were carried out at five substrate and three inhibitor concentrations.

The target in test [1] is T2, MAO-B (Homo sapiens, UniProt P27338).
T2 construct: purchased Sigma-Aldrich
T2 sequence (P27338 1-520): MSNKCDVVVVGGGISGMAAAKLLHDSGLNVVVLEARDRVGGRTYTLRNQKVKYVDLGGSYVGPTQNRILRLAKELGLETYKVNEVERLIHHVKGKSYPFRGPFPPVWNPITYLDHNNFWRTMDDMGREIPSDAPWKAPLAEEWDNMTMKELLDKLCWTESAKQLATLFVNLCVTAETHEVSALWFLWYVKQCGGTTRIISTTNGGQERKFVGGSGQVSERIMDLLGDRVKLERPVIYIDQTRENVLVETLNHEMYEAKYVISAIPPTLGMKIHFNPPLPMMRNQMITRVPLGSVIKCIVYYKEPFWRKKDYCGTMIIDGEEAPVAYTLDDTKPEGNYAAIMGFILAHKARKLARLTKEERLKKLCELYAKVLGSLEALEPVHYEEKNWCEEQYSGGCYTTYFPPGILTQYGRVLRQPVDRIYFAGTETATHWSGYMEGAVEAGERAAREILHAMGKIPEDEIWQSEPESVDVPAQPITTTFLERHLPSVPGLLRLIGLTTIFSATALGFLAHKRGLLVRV
The experiment in a line: biochemical. To be noted: for SI (selectivity index, ratio of IC50 MAO-A to MAO-B): MAO-A vs. MAO-B IC50 ratio; for IC50: mean ± standard error of duplicates, reference compounds after 30 min preincubation with enzyme, read-out: IC50 (µM) MAO-B; for remaining activity at 1 µM: read-out: Residual Activity (%) MAO-B (1.0 µM). The procedure: Recombinant hMAO-A and hMAO-B activities were assayed while using kynuramine (0.06 mM) and benzylamine (0.3 mM) as substrates, respectively, as described previously. […] AChE activity was measured using Type VI-S from Electrophorus electricus in the presence of 0.5 mM 5,5’-dithiobis(2-nitrobenzoic acid) and 0.5 mM acetylthiocholine iodide, as described previously. Enzymes and chemicals were purchased from Sigma–Aldrich (St. Louis, MO, USA). […]

The target of test [2] is T3, AChE (Type VI-S from Electrophorus electricus) (Electrophorus electricus, UniProt O42275).
T3 construct: purchased Sigma-Aldrich Type VI-S
T3 sequence (O42275 24-633): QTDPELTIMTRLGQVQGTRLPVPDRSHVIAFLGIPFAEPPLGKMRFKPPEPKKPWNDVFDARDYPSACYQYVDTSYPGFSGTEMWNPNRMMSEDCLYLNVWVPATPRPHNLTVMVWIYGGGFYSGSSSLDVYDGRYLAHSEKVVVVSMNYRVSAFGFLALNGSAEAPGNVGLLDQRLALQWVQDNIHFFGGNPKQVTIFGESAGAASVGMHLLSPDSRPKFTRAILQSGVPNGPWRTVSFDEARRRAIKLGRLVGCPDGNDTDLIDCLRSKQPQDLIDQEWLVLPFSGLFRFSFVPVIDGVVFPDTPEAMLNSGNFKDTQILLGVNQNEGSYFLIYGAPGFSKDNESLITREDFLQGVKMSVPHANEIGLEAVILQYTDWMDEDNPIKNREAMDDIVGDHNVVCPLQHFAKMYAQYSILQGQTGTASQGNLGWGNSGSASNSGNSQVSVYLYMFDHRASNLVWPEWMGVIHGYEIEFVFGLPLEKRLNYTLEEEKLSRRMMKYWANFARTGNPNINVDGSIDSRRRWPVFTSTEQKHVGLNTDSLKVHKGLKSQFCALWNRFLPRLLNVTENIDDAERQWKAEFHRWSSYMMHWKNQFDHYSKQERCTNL
The experiment in a line: AChE inhibition assay (DTNB / acetylthiocholine iodide). It counts as biochemical. To be noted: for remaining activity at 10 µM / Residual Activity (%) AChE (10 µM): compound at 10 µM, mean ± standard error of duplicate experiments; for remaining activity at 10 µM: read-out: Residual Activity (%) AChE (10 µM). The procedure:
AChE activity was measured using Type VI-S from Electrophorus electricus in the presence of 0.5 mM 5,5’-dithiobis(2-nitrobenzoic acid) and 0.5 mM acetylthiocholine iodide, as described previously. Enzymes and chemicals were purchased from Sigma–Aldrich (St. Louis, MO, USA).
Kinetic experiments were carried out at five substrate and three inhibitor concentrations.

Test [3] deals with T2, MAO-B. The experiment in a line: Kinetics of MAO-B inhibition (Lineweaver-Burk and secondary plots). As to conditions: for Mode of MAO-B inhibition: Lineweaver-Burk plots; for Ki: competitive inhibition, secondary plots of slopes vs. inhibitor concentration. It counts as biochemical. The method, then: as §1
Test [4] concerns the target T2, MAO-B. The experiment in a line: Reversibility of MAO-B inhibition by dialysis. Type of test: biochemical. As to conditions: for Reversibility of MAO-B inhibition: dialysis method. An excerpt:
Relative activities of undialyzed (AU) and dialyzed (AD) samples were used to determine the reversibilities.

Test [5] deals with T2, MAO-B. To be noted: read-out: IC50 MAO-B of earlier chalcone derivative; cited from earlier work.

Values joined by “and” are separate entries in the source; they are usually repeats but may differ in a detail not shown here. Identical values can stand only once. Like-named read-outs stand apart in the source and are kept apart here. A value given as a limit tells only on which side of the number the result lay.

In the case of `O=C(/C=C/c1ccc(ON=C2CCCCC2)cc1)c1ccc(F)cc1` [COE-6], at recombinant hMAO-A, the remaining activity at 1 µM amounted to 76.8 ± 3.98% and the IC50 was 4 ± 0.021 µM. In addition, on MAO-B [1], the “MAO-B potency relative to clorgyline (times more potent)” value is 105.6 times and 105 times; the “MAO-B potency relative to lazabemide (times more potent)” value was 2.33 times and 2.3 times; the “MAO-B potency relative to pargyline (times more potent)” value is given as 1.1 times; the “SI (selectivity index, ratio of IC50 MAO-A to MAO-B)” value came to 222.2. For the same compound, at MAO-B [1], the IC50 was 0.02 µM and 0.018 µM; the remaining activity at 1 µM is -1.06 ± 1.84%. In addition, in test [2], the half-inhibitory concentration (IC50) was greater than 40 µM and the remaining activity at 10 µM was 79.4 ± 3.97%. Also, on MAO-B [3], the “Mode of MAO-B inhibition” value is “competitively inhibited” and the affinity, expressed as Ki, was 0.0075 µM. For the same compound, at MAO-B [4], the “Reversibility of MAO-B inhibition” value is “reversible inhibitors”. Moreover, the “Relative MAO-B activity, dialyzed (AD)” value at MAO-B [4] (~2 × IC50 of inhibitor, 30 min preincubation, after dialysis) came to 81.1%. Also, the “Relative MAO-B activity, undialyzed (AU)” value at MAO-B [4] (~2 × IC50 of inhibitor, 30 min preincubation, undialyzed) is recorded as 19.7%.

Regarding `COc1ccc(/C=C/C(=N/Oc2ccc(C(C)=O)cc2)c2ccc(OC)cc2)cc1` [COE-17], at recombinant hMAO-A, the remaining activity at 1 µM was 80.9 ± 2.01% and the IC50 was greater than 10 µM. At MAO-B [1], the “SI (selectivity index, ratio of IC50 MAO-A to MAO-B)” value is given as greater than 13.9; the IC50 was found to be 0.72 ± 0.015 µM; the remaining activity at 1 µM came out at 17.6 ± 2.77%. Besides, in test [2], the half-inhibitory concentration (IC50) is greater than 40 µM and the remaining activity at 10 µM worked out at 80.3 ± 1.39%.

Take `COC(=O)c1ccc(O/N=C(/C=C/c2ccc(OC)cc2)c2ccc(OC)cc2)cc1` [COE-18]: on recombinant hMAO-A, the remaining activity at 1 µM was 88.1 ± 0.99% and the IC50 is greater than 10 µM. Besides, at MAO-B [1], the “SI (selectivity index, ratio of IC50 MAO-A to MAO-B)” value is on record as greater than 11.8; the half-maximal inhibitory concentration (IC50) stood at 0.85 ± 0.12 µM; the remaining activity at 1 µM is 33.3 ± 0.52%. In test [2], the half-inhibitory concentration (IC50) came to 10.6 ± 0.26 µM and the remaining activity at 10 µM is 58.3 ± 5.3%.

In the case of `COc1ccc(/C=C/C(=N/Oc2ccc(/C=C/C(=O)c3ccccc3)cc2)c2ccc(OC)cc2)cc1` [COE-19], on recombinant hMAO-A, the remaining activity at 1 µM is 85.3 ± 0.99% and the half-inhibitory concentration (IC50) was greater than 10 µM. Further, on MAO-B [1], the “SI (selectivity index, ratio of IC50 MAO-A to MAO-B)” value was greater than 31.3; the IC50 turned out to be 0.32 ± 0.015 µM; the remaining activity at 1 µM stood at 19.2 ± 3.06%. Also, in test [2], the concentration for half-maximal inhibition (IC50) was found to be 5.35 ± 0.68 µM, the “Residual Activity (%) AChE (10 µM)” value came to 39.0 ± 0.45% and the remaining activity at 10 µM is less than 50%.

Take `COc1ccc(/C=C/C(=N/Oc2ccc(/C=C/C(=O)c3ccc(OC)cc3)cc2)c2ccc(OC)cc2)cc1` [COE-20]: at recombinant hMAO-A, the remaining activity at 1 µM came out at 89.7 ± 4.51% and the IC50 is greater than 10 µM. On MAO-B [1], the “SI (selectivity index, ratio of IC50 MAO-A to MAO-B)” value is greater than 28.6; the IC50 was 0.35 ± 0.011 µM; the remaining activity at 1 µM is 21 ± 0.42%. Besides, in test [2], half-maximal inhibition (IC50) was put at 11.2 ± 1.33 µM and the remaining activity at 10 µM is 60.6 ± 5.74%.

For `COc1ccc(C(/C=C/c2ccccc2)=N\Oc2ccc(/C=C/C(=O)c3ccc(C)cc3)cc2)cc1` [COE-21], on recombinant hMAO-A, the remaining activity at 1 µM was 85.8 ± 1.47% and the IC50 amounted to 15.9 ± 0.59 µM. For the same compound, at MAO-B [1], the “SI (selectivity index, ratio of IC50 MAO-A to MAO-B)” value was 441.7; the half-inhibitory concentration (IC50) came out at 0.036 ± 0.0019 µM; the remaining activity at 1 µM was -2.19 ± 0.08%. Moreover, in test [2], the concentration for half-maximal inhibition (IC50) was found to be 9.65 ± 1.2 µM, the “Residual Activity (%) AChE (10 µM)” value is on record as 49.4 ± 2.90% and the remaining activity at 10 µM is less than 50%.

For `COc1ccc(/C=C/C(=N/Oc2ccc(/C=C/C(=O)c3ccc(F)cc3)cc2)c2ccc(OC)cc2)cc1` [COE-22], the remaining activity at 1 µM on recombinant hMAO-A came out at 81.8 ± 0.99%. For the same compound, at MAO-B [1], the IC50 amounted to 0.028 ± 0.0042 µM and the remaining activity at 1 µM was determined as 5.47 ± 0.21%. Also, the remaining activity at 10 µM in test [2] was less than 50%. On MAO-B [3], the “Mode of MAO-B inhibition” value was “competitively inhibited” and the inhibition constant (Ki) came to 0.01 µM. The “Reversibility of MAO-B inhibition” value at MAO-B [4] is on record as “reversible inhibitors”.

Turning to `COc1ccc(/C=C/C(=O)c2ccc(O/N=C(/C=C/c3ccc(OC)cc3)c3ccc(OC)cc3)cc2)cc1` [COE-23], on recombinant hMAO-A, the remaining activity at 1 µM came out at 85.1 ± 4.01% and the IC50 was greater than 10 µM. Moreover, at MAO-B [1], the “SI (selectivity index, ratio of IC50 MAO-A to MAO-B)” value is greater than 66.7; the IC50 was determined as 0.15 ± 0.021 µM; the remaining activity at 1 µM stood at 25.8 ± 4.78%. Moreover, in test [2], the IC50 turned out to be 9.16 ± 0.021 µM and the remaining activity at 10 µM is 57.3 ± 1.34%.

On to `COc1ccc(C(/C=C/c2ccccc2)=N\Oc2ccc(C(=O)/C=C/c3cc(OC)c(OC)c(OC)c3)cc2)cc1` [COE-24], for which, at recombinant hMAO-A, the remaining activity at 1 µM came to 88.9 ± 0.98% and the IC50 was greater than 10 µM. On MAO-B [1], the IC50 is greater than 10 µM and the remaining activity at 1 µM stood at 87.4 ± 2.81%. Moreover, in test [2], the half-inhibitory concentration (IC50) is greater than 40 µM and the remaining activity at 10 µM came out at 72.5 ± 2.91%.

Regarding `CCO/C(C)=N/Oc1ccc(/C=C/C(=O)c2ccc(F)cc2)cc1` [L3, ethyl (1E)-N-{4-[(1E)-3-(4-fluorophenyl)-3-oxoprop-1-en-1-yl]phenoxy}ethanimidate], the 50% inhibitory concentration (IC50) on MAO-B [5] is 0.053 µM.
